Target: CalE8 (Micromonospora echinospora, UniProt Q8KNG1)
Experiment: in vitro reconstitution, HPLC/LCMS of base-released polyketides
Format: biochemical
Details: NADPH co-substrate (0.5 mM each), pH 7.0, 24 °C, no CalE7 thioesterase

CalE8, sequence (Q8KNG1 1-1919): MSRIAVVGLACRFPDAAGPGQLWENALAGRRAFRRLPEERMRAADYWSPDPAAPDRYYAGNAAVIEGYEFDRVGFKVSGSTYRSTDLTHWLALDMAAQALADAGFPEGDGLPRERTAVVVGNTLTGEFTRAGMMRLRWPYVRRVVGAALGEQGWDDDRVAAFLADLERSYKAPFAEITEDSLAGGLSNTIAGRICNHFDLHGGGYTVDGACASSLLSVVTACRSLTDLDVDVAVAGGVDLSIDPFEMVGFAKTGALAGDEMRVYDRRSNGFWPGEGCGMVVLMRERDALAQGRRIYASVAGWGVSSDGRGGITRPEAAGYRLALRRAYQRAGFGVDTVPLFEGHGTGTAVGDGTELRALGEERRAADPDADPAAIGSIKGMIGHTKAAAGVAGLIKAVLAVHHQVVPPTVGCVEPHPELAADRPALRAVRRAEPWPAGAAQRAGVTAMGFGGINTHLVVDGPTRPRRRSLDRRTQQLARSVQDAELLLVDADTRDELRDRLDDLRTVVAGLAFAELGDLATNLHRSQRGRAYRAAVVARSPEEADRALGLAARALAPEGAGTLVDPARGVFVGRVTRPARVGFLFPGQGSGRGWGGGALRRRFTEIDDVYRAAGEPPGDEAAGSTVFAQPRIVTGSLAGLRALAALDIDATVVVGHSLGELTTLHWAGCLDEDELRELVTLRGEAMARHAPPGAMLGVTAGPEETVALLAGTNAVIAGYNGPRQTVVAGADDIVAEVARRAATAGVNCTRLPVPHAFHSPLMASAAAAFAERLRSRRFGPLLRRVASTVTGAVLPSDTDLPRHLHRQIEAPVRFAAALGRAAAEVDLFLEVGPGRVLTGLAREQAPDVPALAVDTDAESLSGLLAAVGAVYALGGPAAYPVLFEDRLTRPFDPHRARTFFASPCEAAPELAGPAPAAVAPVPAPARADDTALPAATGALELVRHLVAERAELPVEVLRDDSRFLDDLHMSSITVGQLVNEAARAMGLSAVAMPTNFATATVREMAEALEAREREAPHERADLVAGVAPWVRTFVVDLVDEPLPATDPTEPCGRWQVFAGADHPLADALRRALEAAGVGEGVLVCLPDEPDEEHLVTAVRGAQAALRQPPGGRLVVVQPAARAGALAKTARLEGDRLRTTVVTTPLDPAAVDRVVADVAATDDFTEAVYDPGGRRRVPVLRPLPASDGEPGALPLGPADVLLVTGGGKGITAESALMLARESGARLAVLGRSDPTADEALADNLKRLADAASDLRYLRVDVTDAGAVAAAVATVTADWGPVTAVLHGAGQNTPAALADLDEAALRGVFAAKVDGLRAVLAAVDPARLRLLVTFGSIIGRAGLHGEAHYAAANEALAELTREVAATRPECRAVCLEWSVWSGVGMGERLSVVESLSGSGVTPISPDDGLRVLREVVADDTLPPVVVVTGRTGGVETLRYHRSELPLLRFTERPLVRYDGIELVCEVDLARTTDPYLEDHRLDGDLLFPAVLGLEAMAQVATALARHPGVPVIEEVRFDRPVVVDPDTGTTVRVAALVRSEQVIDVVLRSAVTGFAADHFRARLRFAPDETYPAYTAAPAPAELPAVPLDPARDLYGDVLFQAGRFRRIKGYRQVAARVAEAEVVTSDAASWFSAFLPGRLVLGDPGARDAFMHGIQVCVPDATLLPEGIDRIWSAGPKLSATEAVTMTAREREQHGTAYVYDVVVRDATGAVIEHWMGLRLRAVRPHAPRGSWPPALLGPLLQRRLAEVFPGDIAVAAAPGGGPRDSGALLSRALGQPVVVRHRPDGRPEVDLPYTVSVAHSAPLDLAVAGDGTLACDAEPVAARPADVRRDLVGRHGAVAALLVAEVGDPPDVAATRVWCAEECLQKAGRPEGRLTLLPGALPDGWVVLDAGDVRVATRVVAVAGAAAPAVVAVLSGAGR

CC(=O)NCCSC(=O)CC(=O)O [malonyl-SNAc]
in vitro reconstitution, HPLC/LCMS of base-released polyketides: polyketide profiles of CalE8 are consistent when MalCoA is replaced by malonyl-SNAc (MalSNAc)

— PMC3876893 (Journal of the American Chemical Society, 2013)
